Target: T1, SMARCA2 (Homo sapiens, UniProt P51531)
T1 construct: endogenous in cells; host or cells: HT1080 (CRISPR HiBiT knock-in clone, generated in house)
Assay: SMARCA2 HiBiT degradation assay (cellular)
Type: cell-based
Details: table head names A549; for DC50: 6 h incubation, HiBiT-tagged SMARCA2, luminescence read-out, read-out: HiBit A549 SMARCA2 IP (nM) 6 h; for Emax: A549, 6 h incubation, Emax = amount of residual protein remaining in the cell following compound treatment

T1 sequence (P51531 whole entry): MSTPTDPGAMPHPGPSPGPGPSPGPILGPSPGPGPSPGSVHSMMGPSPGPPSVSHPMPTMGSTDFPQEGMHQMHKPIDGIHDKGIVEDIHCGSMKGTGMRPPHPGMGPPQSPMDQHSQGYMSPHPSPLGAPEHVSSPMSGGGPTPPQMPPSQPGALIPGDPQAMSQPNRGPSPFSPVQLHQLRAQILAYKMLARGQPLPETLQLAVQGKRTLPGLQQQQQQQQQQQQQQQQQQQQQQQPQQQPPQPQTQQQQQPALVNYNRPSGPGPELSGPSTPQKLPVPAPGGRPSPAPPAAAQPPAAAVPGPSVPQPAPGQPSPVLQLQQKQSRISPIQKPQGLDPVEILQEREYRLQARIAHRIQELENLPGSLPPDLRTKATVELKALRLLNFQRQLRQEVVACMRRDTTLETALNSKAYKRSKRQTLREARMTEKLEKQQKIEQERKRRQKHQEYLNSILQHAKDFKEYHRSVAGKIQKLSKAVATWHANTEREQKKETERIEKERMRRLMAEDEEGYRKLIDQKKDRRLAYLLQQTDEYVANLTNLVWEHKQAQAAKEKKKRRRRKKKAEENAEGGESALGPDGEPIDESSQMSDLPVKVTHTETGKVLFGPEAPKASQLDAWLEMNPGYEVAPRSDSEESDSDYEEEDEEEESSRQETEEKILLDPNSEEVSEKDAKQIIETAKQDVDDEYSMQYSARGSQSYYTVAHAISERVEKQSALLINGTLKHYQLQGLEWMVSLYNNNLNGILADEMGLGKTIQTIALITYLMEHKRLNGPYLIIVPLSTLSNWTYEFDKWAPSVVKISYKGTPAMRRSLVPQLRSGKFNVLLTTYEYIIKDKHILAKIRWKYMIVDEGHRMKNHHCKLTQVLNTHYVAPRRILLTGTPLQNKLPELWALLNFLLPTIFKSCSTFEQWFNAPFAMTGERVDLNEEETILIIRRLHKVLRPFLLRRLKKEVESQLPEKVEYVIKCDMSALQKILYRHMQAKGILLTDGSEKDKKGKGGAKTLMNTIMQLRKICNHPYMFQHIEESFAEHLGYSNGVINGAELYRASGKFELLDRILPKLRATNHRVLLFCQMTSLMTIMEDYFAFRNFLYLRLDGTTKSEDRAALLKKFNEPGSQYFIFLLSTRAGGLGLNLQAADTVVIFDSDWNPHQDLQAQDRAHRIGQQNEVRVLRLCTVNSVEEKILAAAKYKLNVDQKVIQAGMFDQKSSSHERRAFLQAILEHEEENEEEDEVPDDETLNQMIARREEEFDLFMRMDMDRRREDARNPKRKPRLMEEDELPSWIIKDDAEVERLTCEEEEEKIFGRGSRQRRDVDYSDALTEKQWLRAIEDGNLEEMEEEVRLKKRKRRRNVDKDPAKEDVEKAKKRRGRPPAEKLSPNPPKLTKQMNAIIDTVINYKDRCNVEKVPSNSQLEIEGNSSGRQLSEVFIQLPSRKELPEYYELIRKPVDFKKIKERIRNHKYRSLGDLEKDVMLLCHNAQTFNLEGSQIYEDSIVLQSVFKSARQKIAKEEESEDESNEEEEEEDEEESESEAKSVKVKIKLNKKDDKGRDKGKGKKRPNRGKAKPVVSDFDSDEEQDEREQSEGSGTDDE

Row | Compound | DC50 | Emax
1 | Nc1nnc(-c2ccccc2O)cc1OC1CCCN(c2ccc(OCCN3CCN(C(=O)CCCCCCCCCCCn4cc(CNc5cccc6c5C(=O)N(C5CCC(=O)NC5=O)C6=O)nn4)CC3)cc2)C1 (centres unmarked) [Example 23, 4-[[1-[12-[4-[2-[4-[3-[3-amino-6-(2-hydroxyphenyl)pyridazin-4-yl]oxy-1-piperidyl]phenoxy]ethyl]piperazin-1-yl]-12-oxo-dodecyl]triazol-4-yl]methylamino]-2-(2,6-dioxo-3-piperidyl)isoindoline-1,3-dione] | 157 nM | 45%
2 | Nc1nnc(-c2ccccc2O)cc1N1CC2CCC(C1)N2c1cccc(OCCN2CCN(CCCC3CCN(c4ccc5c(c4)C(=O)N(C4CCC(=O)NC4=O)C5=O)CC3)CC2)c1 (racemic) [Example 143, rac-5-[4-[3-[4-[2-[3-[3-[3-amino-6-(2-hydroxyphenyl)pyridazin-4-yl]-3,8-diazabicyclo[3.2.1]octan-8-yl]phenoxy]ethyl]piperazin-1-yl]propyl]-1-piperidyl]-2-(2,6-dioxo-3-piperidyl)isoindoline-1,3-dione] | 2 nM | 8%
3 | Nc1nnc(-c2cc(F)cc(F)c2O)cc1N1CCC(CNC(=O)CCCN2CCC(c3ccc(OC4CCC(=O)NC4=O)cc3)CC2)(c2ccccc2)CC1 (centres unmarked) [Example 182, N-[[1-[3-amino-6-(3,5-difluoro-2-hydroxy-phenyl)pyridazin-4-yl]-4-phenyl-4-piperidyl]methyl]-4-[4-[4-[(2,6-dioxo-3-piperidyl)oxy]phenyl]-1-piperidyl]butanamide] | 103 nM | 47%
4 | Nc1nnc(-c2ccccc2O)cc1N1CCC(C(=O)N2CC3(CCN(C(=O)COc4ccc5c(c4)C(=O)N(C4CCC(=O)NC4=O)C5=O)CC3)C2)(c2ccccc2)CC1 (centres unmarked) [Example 162, 5-(2-(2-(1-(3-amino-6-(2-hydroxyphenyl)pyridazin-4-yl)-4-phenylpiperidine-4-carbonyl)-2,7-diazaspiro[3.5]nonan-7-yl)-2-oxoethoxy)-2-(2,6-dioxopiperidin-3-yl)isoindoline-1,3-dione] | 299 nM | 57%
5 | Nc1nnc(-c2ccccc2O)cc1N1CCC(C(=O)N2CC3(CCN(C(=O)COc4ccc5c(c4)C(=O)N(C4CCC(=O)NC4=O)C5=O)C3)C2)(c2ccccc2)CC1 (centres unmarked) [Example 189, 5-(2-(2-(1-(3-amino-6-(2-hydroxyphenyl)pyridazin-4-yl)-4-phenylpiperidine-4-carbonyl)-2,6-diazaspiro[3.4]octan-6-yl)-2-oxoethoxy)-2-(2,6-dioxopiperidin-3-yl)isoindoline-1,3-dione] | 1370 nM | 62%
6 | Nc1nnc(-c2ccccc2O)cc1N1CC2CCC(C1)N2c1cccc(CN2CCC(C(=O)NC3CN(c4ccc5c(c4)C(=O)N(C4CCC(=O)NC4=O)C5=O)C3)CC2)c1 (racemic) [Example 134, rac-1-[[3-[3-[3-amino-6-(2-hydroxyphenyl)pyridazin-4-yl]-3,8-diazabicyclo[3.2.1]octan-8-yl]phenyl]methyl]-N-[1-[2-(2,6-dioxo-3-piperidyl)-1,3-dioxo-isoindolin-5-yl]azetidin-3-yl]piperidine-4-carboxamide] | 31 nM | 36%
7 | Nc1nnc(-c2ccccc2O)cc1N1CC2CCC(C1)N2c1cccc(OC2CCN(C(=O)C3CCN(c4ccc5c(c4)C(=O)N(C4CCC(=O)NC4=O)C5=O)CC3)CC2)c1 (racemic) [Example 113, rac-5-[4-[4-[3-[3-[3-amino-6-(2-hydroxyphenyl)pyridazin-4-yl]-3,8-diazabicyclo[3.2.1]octan-8-yl]phenoxy]piperidine-1-carbonyl]-1-piperidyl]-2-(2,6-dioxo-3-piperidyl)isoindoline-1,3-dione] | 19 nM | 35%
8 | Nc1nnc(-c2ccccc2O)cc1N1CC2CCC(C1)N2c1cccc(CC2CCN(C(=O)CCC3CCN(c4ccc5c(c4)C(=O)N(C4CCC(=O)NC4=O)C5=O)CC3)CC2)c1 (racemic) [Example 59, rac-5-[4-[3-[4-[[3-[3-[3-amino-6-(2-hydroxyphenyl)pyridazin-4-yl]-3,8-diazabicyclo[3.2.1]octan-8-yl]phenyl]methyl]-1-piperidyl]-3-oxo-propyl]-1-piperidyl]-2-(2,6-dioxo-3-piperidyl)isoindoline-1,3-dione] | 129 nM | 65%
9 | Nc1nnc(-c2ccccc2O)cc1N1CC(Oc2cccc(CN3CCN(C(=O)CCCCCCCCCNc4cccc5c4C(=O)N(C4CCC(=O)NC4=O)C5=O)CC3)c2)C1 (centres unmarked) [Example 32, 4-[[10-[4-[[3-[1-[3-amino-6-(2-hydroxyphenyl)pyridazin-4-yl]azetidin-3-yl]oxyphenyl]methyl]piperazin-1-yl]-10-oxo-decyl]amino]-2-(2,6-dioxo-3-piperidyl)isoindoline-1,3-dione] | 281 nM | 62%
10 | Nc1nnc(-c2ccccc2O)cc1OCC(CNC(=O)CN1CCC(c2ccc(OC3CCC(=O)NC3=O)cc2)CC1)c1ccccc1 (racemic) [Example 98, N-[3-[3-amino-6-(2-hydroxyphenyl)pyridazin-4-yl]oxy-2-phenyl-propyl]-2-[4-[4-[(2,6-dioxo-3-piperidyl)oxy]phenyl]-1-piperidyl]acetamide;2,2,2-trifluoroacetic acid (racemic mixture of diastereomers)] | 182 nM | 63%
11 | Nc1nnc(-c2ccccc2O)cc1N1CC2CCC(C1)N2c1cccc(CN2CCC(C(=O)N3CCN(c4ccc(OC5CCC(=O)NC5=O)cc4)CC3)CC2)c1 (racemic) [Example 94, rac-3-[4-[4-[1-[[3-[3-[3-amino-6-(2-hydroxyphenyl)pyridazin-4-yl]-3,8-diazabicyclo[3.2.1]octan-8-yl]phenyl]methyl]piperidine-4-carbonyl]piperazin-1-yl]phenoxy]piperidine-2,6-dione] | 18 nM | 48%
12 | Nc1nnc(-c2ccccc2O)cc1N1CCC(C(=O)N2CCC3(CC2)CN(C(=O)CN2CCN(c4ccc(NC5CCC(=O)NC5=O)cc4)CC2)CCO3)(c2ccccc2)CC1 (centres unmarked) [Example 173, 3-((4-(4-(2-(9-(1-(3-amino-6-(2-hydroxyphenyl)pyridazin-4-yl)-4-phenylpiperidine-4-carbonyl)-1-oxa-4,9-diazaspiro[5.5]undecan-4-yl)-2-oxoethyl)piperazin-1-yl)phenyl)amino)piperidine-2,6-dione] | 110 nM | 72%
13 | Nc1nnc(-c2ccccc2O)cc1OC1CCCN(c2ccc(N3CCN(CCCCC(=O)N4CCC(n5cc(COc6cccc7c6C(=O)N(C6CCC(=O)NC6=O)C7=O)nn5)CC4)CC3)cc2)C1 (racemic) [Example 138, 2-(2,6-dioxo-3-piperidyl)-4-[[1-[1-[5-[4-[4-[rac-(3S)-3-[3-amino-6-(2-hydroxyphenyl)pyridazin-4-yl]oxy-1-piperidyl]phenyl]piperazin-1-yl]pentanoyl]-4-piperidyl]triazol-4-yl]methoxy]isoindoline-1,3-dione] | 678 nM | 42%

The remaining lines, values ahead:

Row | DC50 | Emax | Compound
14 | 47 nM | 26% | Nc1nnc(-c2ccccc2O)cc1N1CCC(C(=O)N2CC3(CN(C(=O)C4CCN(c5ccc6c(c5)C(=O)N(C5CCC(=O)NC5=O)C6=O)CC4)C3)C2)(c2ccccc2)CC1 (centres unmarked) [Example 121, 5-(4-(6-(1-(3-amino-6-(2-hydroxyphenyl)pyridazin-4-yl)-4-phenylpiperidine-4-carbonyl)-2,6-diazaspiro[3.3]heptane-2-carbonyl)piperidin-1-yl)-2-(2,6-dioxopiperidin-3-yl)isoindoline-1,3-dione]
15 | 11 nM | 27% | Nc1nnc(-c2ccccc2O)cc1N1CCC(C(=O)N2CC3(CN(CC4CCN(c5ccc6c(c5)C(=O)N(C5CCC(=O)NC5=O)C6=O)CC4)C3)C2)(c2ccccc2)CC1 (centres unmarked) [Example 159, 5-(4-((6-(1-(3-amino-6-(2-hydroxyphenyl)pyridazin-4-yl)-4-phenylpiperidine-4-carbonyl)-2,6-diazaspiro[3.3]heptan-2-yl)methyl)piperidin-1-yl)-2-(2,6-dioxopiperidin-3-yl)isoindoline-1,3-dione]
16 | 100 nM | 33% | Nc1nnc(-c2ccccc2O)cc1N1CCC(C(=O)NCC2CCN(C(=O)CCCN3CCC(c4ccc(NC5CCC(=O)NC5=O)cc4)CC3)CC2)(c2ccccc2)CC1 (centres unmarked) [Example 105, 1-(3-amino-6-(2-hydroxyphenyl)pyridazin-4-yl)-N-((1-(4-(4-(4-((2,6-dioxopiperidin-3-yl)amino)phenyl)piperidin-1-yl)butanoyl)piperidin-4-yl)methyl)-4-phenylpiperidine-4-carboxamide]
17 | 92 nM | 63% | Nc1nnc(-c2ccccc2O)cc1N1CC(Oc2cccc(CN3CCN(C(=O)CCCCCCNc4cccc5c4C(=O)N(C4CCC(=O)NC4=O)C5=O)CC3)c2)C1 (centres unmarked) [Example 30, 4-[[7-[4-[[3-[1-[3-amino-6-(2-hydroxyphenyl)pyridazin-4-yl]azetidin-3-yl]oxyphenyl]methyl]piperazin-1-yl]-7-oxo-heptyl]amino]-2-(2,6-dioxo-3-piperidyl)isoindoline-1,3-dione]
18 | 28 nM | 38% | Nc1nnc(-c2ccccc2O)cc1N1CCC(C(=O)N2CC3(CCN(C(=O)CN4CCC(c5ccc(NC6CCC(=O)NC6=O)cc5)CC4)CC3)C2)(c2ccccc2)CC1 (centres unmarked) [Example 165, 3-((4-(1-(2-(2-(1-(3-amino-6-(2-hydroxyphenyl)pyridazin-4-yl)-4-phenylpiperidine-4-carbonyl)-2,7-diazaspiro[3.5]nonan-7-yl)-2-oxoethyl)piperidin-4-yl)phenyl)amino)piperidine-2,6-dione]
19 | 65 nM | 50% | Nc1nnc(-c2ccccc2O)cc1OC1CCCN(c2ccc(N3CCN(C(=O)CCCCCCCCn4cc(CNc5cccc6c5C(=O)N(C5CCC(=O)NC5=O)C6=O)nn4)CC3)cc2)C1 (centres unmarked) [Example 3, 4-[[1-[9-[4-[4-[3-[3-amino-6-(2-hydroxyphenyl)pyridazin-4-yl]oxy-1-piperidyl]phenyl]piperazin-1-yl]-9-oxo-nonyl]triazol-4-yl]methylamino]-2-(2,6-dioxo-3-piperidyl)isoindoline-1,3-dione]
